# Patent US7674793B2, “Tricyclic dihydropyrazines as potassium channel openers” (Janssen Pharmaceutica NV, priority 2006, dated 2010)
# Molecular target: T1, KATP channels (Homo sapiens, UniProt O60706+Q14654)
# T1 construct: TE671 human medulloblastoma cells were obtained from ATCC; host or cells: TE671 human medulloblastoma cells
# Test: Potassium Channel Assay (FLIPR membrane potential dye, TE671 cells)
# Assay type: cell-based
# Design: key: Active: A compound was designated as active if it produced greater than or equal to 10% response at 30 μM; Inactive: A compound was designated as inactive if it produced less than 10% response at 30 μM
# Settings: percent response at 30 μM; TE671 human medulloblastoma cells; hyperpolarization seen as decrease in fluorescent intensity, room temperature
# Description: TE671 human medulloblastoma cells were obtained from ATCC and grown in Dulbecco's modified Eagle's medium (DMEM) supplemented with 10% fetal bovine serum, 100 U/ml penicillin and 100 U/ml streptomycine.
# The day before testing, the cells were plated in black 96-well plates at 50 K/well. On the day of testing, the growth media was removed, then 100 μl of FLIPR buffer (20 mM HEPES, 120 mM NaCl, 2 mM KCl, 2 mM CaCl2, 1 mM MgCl2, 5 mM Glucose) and 100 μl of Membrane Potential Assay Dye (Molecular Devices) dissolved in FLIPR buffer were added to each well. The cells were incubated at room temperature for 15 to 30 min.
# The effect of test compounds on KATP channels were evaluated on a fluorometric imaging plate reader (FLIPR, Molecular Devices) at room temperature. After a baseline period, 50 μl of 5× stock solution of test compound prepared in FLIPR buffer was added and fluorescent change was monitored for 3 minutes. After this reading, glyburide, a KATP channel blocker, was added to a final concentration of 5 μM to check the specificity of the test compound as a KATP channel openers. Hyperpolarization resulting from KATP channel opening was observed as a decrease in fluorescent intensity.
# Representative compounds of the present invention were tested according to the procedure described above, with results as listed in Table BIO1 below. Test compound activity was determined as the percent. A compound was designated as active if it produced greater than or equal to 10% response at 30 μM.
# T1 sequence (O60706 1-1549 isoform O60706-2): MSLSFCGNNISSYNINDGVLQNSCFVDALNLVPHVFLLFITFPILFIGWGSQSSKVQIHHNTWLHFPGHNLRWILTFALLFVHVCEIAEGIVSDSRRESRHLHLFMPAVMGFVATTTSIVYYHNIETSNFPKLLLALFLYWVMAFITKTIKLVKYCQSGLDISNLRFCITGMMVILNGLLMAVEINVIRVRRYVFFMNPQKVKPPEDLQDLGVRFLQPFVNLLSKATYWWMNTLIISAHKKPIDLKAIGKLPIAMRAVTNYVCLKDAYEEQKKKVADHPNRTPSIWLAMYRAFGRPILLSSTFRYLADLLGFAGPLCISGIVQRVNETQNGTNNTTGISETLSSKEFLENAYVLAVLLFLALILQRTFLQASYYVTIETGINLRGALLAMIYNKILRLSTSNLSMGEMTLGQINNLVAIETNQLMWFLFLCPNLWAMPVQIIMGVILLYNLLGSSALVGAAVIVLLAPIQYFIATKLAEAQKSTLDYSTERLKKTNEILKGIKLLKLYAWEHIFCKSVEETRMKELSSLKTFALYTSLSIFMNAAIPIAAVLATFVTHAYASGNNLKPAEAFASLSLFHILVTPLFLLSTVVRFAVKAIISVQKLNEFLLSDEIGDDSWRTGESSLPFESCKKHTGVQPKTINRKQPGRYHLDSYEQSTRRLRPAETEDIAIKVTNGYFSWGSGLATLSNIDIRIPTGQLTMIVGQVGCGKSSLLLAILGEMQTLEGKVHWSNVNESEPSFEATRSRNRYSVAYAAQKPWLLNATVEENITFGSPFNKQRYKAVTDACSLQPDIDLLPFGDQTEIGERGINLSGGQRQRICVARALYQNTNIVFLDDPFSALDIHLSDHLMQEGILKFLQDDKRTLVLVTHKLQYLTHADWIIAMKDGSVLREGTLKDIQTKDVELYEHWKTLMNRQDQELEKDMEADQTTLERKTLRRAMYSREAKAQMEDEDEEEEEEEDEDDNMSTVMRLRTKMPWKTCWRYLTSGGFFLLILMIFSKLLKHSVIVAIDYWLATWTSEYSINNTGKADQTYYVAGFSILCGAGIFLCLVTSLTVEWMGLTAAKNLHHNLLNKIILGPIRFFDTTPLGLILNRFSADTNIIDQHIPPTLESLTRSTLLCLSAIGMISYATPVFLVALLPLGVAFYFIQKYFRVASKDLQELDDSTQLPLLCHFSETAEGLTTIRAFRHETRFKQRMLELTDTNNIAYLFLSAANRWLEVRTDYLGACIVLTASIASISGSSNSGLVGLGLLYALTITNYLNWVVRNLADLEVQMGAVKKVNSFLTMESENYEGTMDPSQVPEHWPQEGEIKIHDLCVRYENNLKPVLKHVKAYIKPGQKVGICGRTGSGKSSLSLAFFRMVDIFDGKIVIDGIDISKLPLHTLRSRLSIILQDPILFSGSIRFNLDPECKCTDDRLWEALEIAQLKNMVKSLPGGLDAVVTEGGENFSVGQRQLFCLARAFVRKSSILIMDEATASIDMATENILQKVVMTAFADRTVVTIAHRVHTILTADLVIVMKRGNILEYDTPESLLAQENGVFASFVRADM
# T1 sequence (Q14654 whole entry): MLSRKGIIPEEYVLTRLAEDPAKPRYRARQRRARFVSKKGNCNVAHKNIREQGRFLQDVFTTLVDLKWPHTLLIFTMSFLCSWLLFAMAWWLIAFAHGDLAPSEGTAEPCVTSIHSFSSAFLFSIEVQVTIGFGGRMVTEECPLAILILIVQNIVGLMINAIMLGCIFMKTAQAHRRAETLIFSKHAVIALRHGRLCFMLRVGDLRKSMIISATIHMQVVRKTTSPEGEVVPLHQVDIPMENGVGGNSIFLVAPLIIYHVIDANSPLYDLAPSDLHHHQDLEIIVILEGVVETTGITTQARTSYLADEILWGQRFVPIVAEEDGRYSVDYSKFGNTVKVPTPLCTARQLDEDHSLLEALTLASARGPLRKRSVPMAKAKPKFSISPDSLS
row,Response,Structure (SMILES)
1,Active,O=C1CCCC(O)=C1N(C1=C(O)CCCC1=O)c1ccc(F)c(F)c1 [compound 2]
2,Active,O=C1CCCC(O)=C1N(C1=C(O)CCCC1=O)c1cccc(I)c1 [compound 3]
3,Active,N#Cc1cccc(N(C2=C(O)CCC2=O)C2=C(O)CCC2=O)c1 [compound 5]
